Columns and labels:
PDE10A = PDE10A (Homo sapiens (Human), UniProt Q9Y233); assay: Measurement of PDE activity (HTRF cAMP kit, recombinant PDE); assay type: biochemical; details: recombinant PDE10, 20 nM cyclic nucleotide substrate, 60 minutes at 29 C
Protocol: The recombinant PDE proteins are used in in vitro enzymatic reaction for measurement of PDE activity. These recombinant proteins, including PDE10A (human, rat and mouse PDE10) and isoforms of PDEs 1, 3, 4, and 5, were purchased from commercial vendor BPS Bioscience. The enzymatic activity of PDEs was determined by cAMP measurement kit from CisBio (IBA) using HTRF technology.
The PDE enzymatic reaction was carried out in assay buffer (20 mM Tris-HCl pH7.5, 10 mM MgCl2, 0.1% bovine serum albumin) containing enzyme and substrate. […] The substrate cyclic nucleotide (cAMP or cGMP) concentration used in the assay was 20 nM for PDE10, and 100 nM for other PDEs. The inhibitory effect of compound was determined by incubating various concentration of inhibitor in the enzymatic assay. […] Next, the compound at varying concentration was mixed with PDE enzyme. The reaction was initiated by addition of cyclic nucleotide substrate, and incubated for 60 minutes at 29 C. The reaction was stopped by addition of lysis buffer from assay kit. The cAMP-d2 and anti-cAMP cryptate in the lysis buffer detected the level of cAMP left from the PDE hydrolysis reaction. […] Thus, IC50 value of inhibitor can be obtained by plotting inhibitor concentration against PDE activity at that concentration.

[1] = Microsomal half-life / microsomal clearance, human liver microsomes; assay type: in vitro ADME; details: 0.5 μM test substance, 0.25 mg microsomal protein/ml, pH 7.4, 37° C.
Protocol: (§1) The metabolic stability of the compounds of the invention was determined in the following assay.
(§2) The test substances were incubated in a concentration of 0.5 μM as follows:
(§3) 0.5 μM test substance are preincubated together with liver microsomes from different species (from rat, human or other species) (0.25 mg of microsomal protein/ml) in 0.05 M potassium phosphate buffer of pH 7.4 in microtiter plates at 37° C. for 5 min. The reaction is started by adding NADPH (1 mg/mL). After 0, 5, 10, 15, 20 and 30 min, 50 μl aliquots are removed, and the reaction is immediately stopped and cooled with the same volume of acetonitrile. The samples are frozen until analyzed. The remaining concentration of undegraded test substance is determined by MSMS. The half-life (T1/2) is determined from the gradient of the signal of test substance/unit time plot, it being possible to calculate the half-life of the test substance, assuming first order kinetics, from the decrease in the concentration of the compound with time. The microsomal clearance (mCl) is calculated from mCl=ln 2/T1/2/(content of microsomal protein in mg/ml)×1000 [ml/min/mg] (modified from references: Di, The Society for Biomoleculur Screening, 2003, 453-462; Obach, DMD, 1999 vol 27. N 11, 1350-1359).

[2] = Microsomal half-life / microsomal clearance, rat liver microsomes; assay type: in vitro ADME; details: 0.5 μM test substance, 0.25 mg microsomal protein/ml, pH 7.4, 37° C.
Protocol: as §1, §2, §3

PDE10A, sequence (Q9Y233 whole entry, species assumed, canonical isoform): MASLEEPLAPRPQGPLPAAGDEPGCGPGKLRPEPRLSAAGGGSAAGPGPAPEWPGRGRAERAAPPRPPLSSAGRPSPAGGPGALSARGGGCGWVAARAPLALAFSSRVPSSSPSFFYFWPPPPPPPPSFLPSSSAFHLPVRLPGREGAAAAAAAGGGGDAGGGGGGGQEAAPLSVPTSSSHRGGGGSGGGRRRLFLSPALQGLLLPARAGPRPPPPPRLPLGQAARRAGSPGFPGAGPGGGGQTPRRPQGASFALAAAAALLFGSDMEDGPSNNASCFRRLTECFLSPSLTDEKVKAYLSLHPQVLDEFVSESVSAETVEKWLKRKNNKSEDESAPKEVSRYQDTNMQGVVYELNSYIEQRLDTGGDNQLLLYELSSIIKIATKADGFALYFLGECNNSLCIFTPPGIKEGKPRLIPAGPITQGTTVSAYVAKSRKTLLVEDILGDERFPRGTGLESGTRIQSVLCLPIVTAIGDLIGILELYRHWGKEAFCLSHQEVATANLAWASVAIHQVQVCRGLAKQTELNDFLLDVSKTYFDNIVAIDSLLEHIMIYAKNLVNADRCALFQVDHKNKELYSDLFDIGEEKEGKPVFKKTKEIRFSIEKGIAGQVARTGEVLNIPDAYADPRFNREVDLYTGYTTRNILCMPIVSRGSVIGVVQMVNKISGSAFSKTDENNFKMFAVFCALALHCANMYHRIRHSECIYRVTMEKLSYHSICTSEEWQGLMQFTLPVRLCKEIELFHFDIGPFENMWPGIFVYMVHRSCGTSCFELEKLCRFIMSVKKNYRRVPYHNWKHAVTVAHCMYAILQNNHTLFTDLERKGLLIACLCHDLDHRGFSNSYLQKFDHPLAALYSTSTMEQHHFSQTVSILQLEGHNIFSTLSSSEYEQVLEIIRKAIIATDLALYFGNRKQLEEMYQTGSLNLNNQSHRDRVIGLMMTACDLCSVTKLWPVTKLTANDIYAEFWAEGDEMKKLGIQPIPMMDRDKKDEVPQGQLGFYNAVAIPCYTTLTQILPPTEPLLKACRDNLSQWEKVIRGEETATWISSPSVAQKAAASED

Compound | IC50 (PDE10A) [nM] | Human mCl [1] | Rat mCl [2]
CCCn1cc(C#Cc2ccc(-c3nn(C)cc3-c3ccncc3)cc2)cn1 [Example 4, 4-(1-methyl-3-(4-((1-propyl-1H-pyrazol-4-yl)ethynyl)phenyl)-1H-pyrazole-4-yl)pyridine] |  | ++ (<100 μl min^−1 mg^−1) | 
Cn1cc(-c2ccncc2)c(-c2ccc(C#Cc3nccs3)cc2)n1.O=C(O)C(F)(F)F [Example 17, 2-[2-[4-[1-methyl-4-(4-pyridyl)pyrazol-3-yl]phenyl]ethynyl]thiazole; 2,2,2-trifluoroacetic acid] | 100 to 200 | ++ (<100 μl min^−1 mg^−1) | ++ (<100 μl min^−1 mg^−1)
Cc1cccc(C#Cc2c(-c3ccncc3)nc3n2CCC3)n1.O=C(O)C(F)(F)F [Example 19, 3-[2-(6-methyl-2-pyridyl)ethynyl]-2-(4-pyridyl)-6,7-dihydro-5H-pyrrolo[1,2-a]imidazole; 2,2,2-trifluoroacetic acid] |  | + (100-220 μl min^−1 mg^−1) | + (100-220 μl min^−1 mg^−1)
Cc1cccc(C#Cc2ccc(-c3c(-c4ccncc4)nc4n3CCC4)cc2)n1 [Example 23, 3-[4-[2-(6-methyl-2-pyridyl)ethynyl]phenyl]-2-(4-pyridyl)-6,7-dihydro-5H-pyrrolo[1,2-a]imidazole] | 100 to 200 | ++ (<100 μl min^−1 mg^−1) | ++ (<100 μl min^−1 mg^−1)
Cc1cccc(C#Cc2ccc(-c3nn(C)cc3-c3cn[nH]c3)cc2)n1 [Example 24, 2-methyl-6-[2-[4-[1-methyl-4-(1H-pyrazol-4-yl)pyrazol-3-yl]phenyl]ethynyl]pyridine] | 200 to 500 | ++ (<100 μl min^−1 mg^−1) | ++ (<100 μl min^−1 mg^−1)
Cc1cccc(C#Cc2ccc(-c3nn(C)cc3-c3cncnc3)cc2)n1 [Example 25, 5-[1-methyl-3-[4-[2-(6-methyl-2-pyridyl)ethynyl]phenyl]pyrazol-4-yl]pyrimidine] | 100 to 200 |  | 
Cc1cccc(C#Cc2ccc(-c3c(-c4ccncc4)cnn3C)cc2)n1 [Example 26, 2-methyl-6-[2-[4-[2-methyl-4-(4-pyridyl)pyrazol-3-yl]phenyl]ethynyl]pyridine] | < 100 | ++ (<100 μl min^−1 mg^−1) | ++ (<100 μl min^−1 mg^−1)
Cc1cccc(C#Cc2ccc(-c3nn(C)cc3-c3ccnn3C)cc2)n1.Cl [Example 27, 2-methyl-6-[2-[4-[1-methyl-4-(2-methylpyrazol-3-yl)pyrazol-3-yl]phenyl]ethynyl]-pyridine hydrochloride] | 100 to 200 | ++ (<100 μl min^−1 mg^−1) | + (100-220 μl min^−1 mg^−1)
Cc1cccc(C#Cc2ccc(-c3nn(C)cc3-c3ccnnc3)cc2)n1 [Example 28, 4-[1-methyl-3-[4-[2-(6-methyl-2-pyridyl)ethynyl]phenyl]pyrazol-4-yl]pyridazine] | < 100 |  | 
COc1ccc(-c2cn(C)nc2-c2ccc(C#Cc3cccc(C)n3)cc2)cc1 [Example 31, 2-[2-[4-[4-(4-methoxyphenyl)-1-methyl-pyrazol-3-yl]phenyl]ethynyl]-6-methylpyridine; 2,2,2-trifluoroacetic acid] | 100 to 200 |  | 

Results, then the compound that gave them:

IC50 (PDE10A) [nM] | Human mCl [1] | Rat mCl [2] | Compound
< 100 | ++ (<100 μl min^−1 mg^−1) | ++ (<100 μl min^−1 mg^−1) | Cn1cc(-c2ccncc2)c(-c2ccc(C#Cc3ccccn3)cc2)n1 [Example 2, 2-((4-(1-methyl-4-(pyridin-4-yl)-1H-pyrazol-3-yl)phenyl)ethynyl)pyridine]
< 100 | ++ (<100 μl min^−1 mg^−1) | ++ (<100 μl min^−1 mg^−1) | Cc1ccc(C#Cc2ccc(-c3nn(C)cc3-c3ccncc3)cc2)nc1 [Example 3, 5-methyl-2-((4-(1-methyl-4-(pyridin-4-yl)-1H-pyrazol-3-yl)phenyl)ethynyl)pyridine]
< 100 | ++ (<100 μl min^−1 mg^−1) | ++ (<100 μl min^−1 mg^−1) | Cn1cc(-c2ccncc2)c(-c2ccc(C#Cc3ccc(F)cn3)cc2)n1 [Example 5, 5-Fluoro-2-((4-(1-methyl-4-(pyridin-4-yl)-1H-pyrazol-3-yl)phenyl)ethynyl)pyridine]
< 100 | ++ (<100 μl min^−1 mg^−1) | ++ (<100 μl min^−1 mg^−1) | Cc1cccnc1C#Cc1ccc(-c2nn(C)cc2-c2ccncc2)cc1 [Example 6, 3-Methyl-2-((4-(1-methyl-4-(pyridin-4-yl)-1H-pyrazol-3-yl)phenyl)ethynyl)pyridine]
< 100 | ++ (<100 μl min^−1 mg^−1) | ++ (<100 μl min^−1 mg^−1) | Cn1cc(-c2ccncc2)c(-c2ccc(C#Cc3nccn3C)cc2)n1 [Example 7, 4-(1-methyl-3-(4-((1-methyl-1H-imidazol-2-yl)ethynyl)phenyl)-1H-pyrazole-4-yl)pyridine]
< 100 | ++ (<100 μl min^−1 mg^−1) | ++ (<100 μl min^−1 mg^−1) | Cc1ccnc(C#Cc2ccc(-c3nn(C)cc3-c3ccncc3)cc2)c1 [Example 8, 4-Methyl-2-((4-(1-methyl-4-(pyridin-4-yl)-1H-pyrazol-3-yl)phenyl)ethynyl)pyridine]
< 100 | ++ (<100 μl min^−1 mg^−1) | ++ (<100 μl min^−1 mg^−1) | Cc1cccc(C#Cc2ccc(-c3nn(C)cc3-c3ccncc3)cc2)n1 [Example 9, 2-Methyl-6-((4-(1-methyl-4-(pyridin-4-yl)-1H-pyrazol-3-yl)phenyl)ethynyl)pyridine]
< 100 | ++ (<100 μl min^−1 mg^−1) | ++ (<100 μl min^−1 mg^−1) | Cn1cc(-c2ccncc2)c(-c2ccc(C#Cc3ccc4ccccc4n3)cc2)n1 [Example 12, 2-((4-(1-methyl-4-(pyridin-4-yl)-1H-pyrazol-3-yl)phenyl)ethynyl)quinoline]
< 100 | ++ (<100 μl min^−1 mg^−1) | ++ (<100 μl min^−1 mg^−1) | Cn1cc(-c2ccncc2)c(-c2ccc(C#Cc3ccc4ncccc4n3)cc2)n1 [Example 13, 2-[2-[4-[1-methyl-4-(4-pyridyl)pyrazol-3-yl]phenyl]ethynyl]-1,5-naphthyridine]
< 100 | ++ (<100 μl min^−1 mg^−1) | ++ (<100 μl min^−1 mg^−1) | Cn1cc(-c2ccncc2)c(-c2ccc(C#Cc3cn4ccccc4n3)cc2)n1 [Example 14, 2-[2-[4-[1-methyl-4-(4-pyridyl)pyrazol-3-yl]phenyl]ethynyl]imidazo[1,2-a]pyridine]
< 100 | ++ (<100 μl min^−1 mg^−1) | ++ (<100 μl min^−1 mg^−1) | Cn1cc(-c2ccncc2)c(-c2ccc(C#Cc3ccc4cc[nH]c4n3)cc2)n1 [Example 15, 6-[2-[4-[1-methyl-4-(4-pyridyl)pyrazol-3-yl]phenyl]ethynyl]-1H-pyrrolo[2,3-b]pyridine]
< 100 | ++ (<100 μl min^−1 mg^−1) | ++ (<100 μl min^−1 mg^−1) | Cc1cc(C#Cc2ccc(-c3nn(C)cc3-c3ccncc3)cc2)nc2ccccc12 [Example 16, 4-methyl-2-[2-[4-[1-methyl-4-(4-pyridyl)pyrazol-3-yl]phenyl]ethynyl]quinoline]
< 100 | ++ (<100 μl min^−1 mg^−1) | ++ (<100 μl min^−1 mg^−1) | Cn1cc(-c2ccncc2)c(-c2ccc(C#Cc3cnc4ccccc4n3)cc2)n1.O=C(O)C(F)(F)F [Example 18, 2-[2-[4-[1-methyl-4-(4-pyridyl)pyrazol-3-yl]phenyl]ethynyl]quinoxaline; 2,2,2-trifluoroacetic acid]
< 100 | ++ (<100 μl min^−1 mg^−1) | ++ (<100 μl min^−1 mg^−1) | COc1cccc(C#Cc2ccc(-c3nn(C)cc3-c3ccncc3)cc2)n1.O=C(O)C(F)(F)F [Example 20, 2-methoxy-6-[2-[4-[1-methyl-4-(4-pyridyl)pyrazol-3-yl]phenyl]ethynyl]pyridine; 2,2,2-trifluoroacetic acid]
< 100 | ++ (<100 μl min^−1 mg^−1) | ++ (<100 μl min^−1 mg^−1) | COc1cccnc1C#Cc1ccc(-c2nn(C)cc2-c2ccncc2)cc1 [Example 21, 3-methoxy-2-[2-[4-[1-methyl-4-(4-pyridyl)pyrazol-3-yl]phenyl]ethynyl]pyridine]
